# Columns and labels:
# [1] = target: T1, human recombinant GST cleaved CSNK1D (Homo sapiens, UniProt P48730); assay: Purified Enzyme Assay (ADP-Glo CSNK1D Kinase Assay); assay type: biochemical; settings: 2 nM CSNK1D; peptide substrate 150 μM; ATP 20 μM; 45 minutes at room temperature
# T1 construct: GST (cleaved yes); purchased University of Dundee clone DU 19064
# Method: In this assay, CSNK1D phosphorylates a substrate peptide PLSRTL-pS-VASLPGL in the presence of ATP. […] This assay monitors CSNK1D kinase activity by measuring the amount of ADP produced in the assay.
# The substrate mix is added to each well of a low volume, 384-well, white opaque plate. Test compounds were diluted in HBSS and added in a dose-response to the plate.
# The total volume of each reaction is 5 ul (2 μL of substrate mix, 1 μL of diluted compounds, and 2 μL of human recombinant CSNK1D). The plates are incubated for 45 minutes at room temperature.
# ADP was quantified using the ADP-Glo™ Kinase Assay. ADP-Glo Reagent (5 μL) was added to each well. After a 1 hour incubation at room temperature, Kinase Detection Reagent (10 μL) was added to each well and incubated for 30 minutes. […] The raw data from the Envision is used to calculate percent activity.
# [2] = target: T2, human CSNK1D (Homo sapiens, UniProt P48730); assay: Whole Cell nBRET CSNK1D Binding Assay; settings: living CHO cells stably expressing human CSNK1D tagged with nanoluciferase; NanoBret tracer 130 nM; 2 hours at 37 C
# T2 construct: expressed in transfected cells
# T2 sequence (P48730 whole entry): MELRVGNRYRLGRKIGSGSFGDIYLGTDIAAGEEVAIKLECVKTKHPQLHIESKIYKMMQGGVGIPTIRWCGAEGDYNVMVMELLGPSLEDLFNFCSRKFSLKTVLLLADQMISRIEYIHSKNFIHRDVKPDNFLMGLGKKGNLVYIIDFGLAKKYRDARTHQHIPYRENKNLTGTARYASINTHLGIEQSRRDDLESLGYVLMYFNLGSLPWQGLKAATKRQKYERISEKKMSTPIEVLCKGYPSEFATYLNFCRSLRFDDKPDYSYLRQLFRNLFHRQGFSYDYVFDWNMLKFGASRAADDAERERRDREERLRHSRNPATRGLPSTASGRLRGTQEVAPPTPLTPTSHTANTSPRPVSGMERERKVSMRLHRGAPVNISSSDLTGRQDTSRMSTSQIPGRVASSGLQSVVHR
# T1 sequence (P48730 whole entry): as above
SMILES,IC50 [1] [nM],IC50 [2] [nM]
"COC[C@@]1(F)CCc2c(-c3cc(C)nc4[nH]ncc34)c(-c3ccc(F)cn3)nn2C1 (single isomer, unassigned) [Example 54, (*R)-4-(6-Fluoro-2-(5-fluoropyridin-2-yl)-6-(methoxymethyl)-4,5,6,7-tetrahydropyrazolo[1,5-a]pyridin-3-yl)-6-methyl-1H-pyrazolo[3,4-b]pyridine]",84,3740
"COC[C@@]1(C)CCc2c(-c3cc(C)nc4[nH]ncc34)c(-c3ccc(F)cn3)nn2C1 (single isomer, unassigned) [Example 55, (*S)-4-(2-(5-Fluoropyridin-2-yl)-6-(methoxymethyl)-6-methyl-4,5,6,7-tetrahydropyrazolo[1,5-a]pyridin-3-yl)-6-methyl-1H-pyrazolo[3,4-b]pyridine]",3,125
"COCC1(C)CCc2c(-c3cc(C)nc4[nH]ncc34)c(-c3ccc(F)cn3)nn2C1 (single isomer, unassigned) [Example 56, (*R)-4-(2-(S-Fluoropyridin-2-yl)-6-(methoxymethyl)-6-methyl-4,5,6,7-tetrahydropyrazolo[1,5-a]pyridin-3-yl)-6-methyl-1H-pyrazolo[3,4-b]pyridine]",3,63
"Fc1ccc(-c2nn3c(c2-c2ccnc4[nH]ncc24)[C@@H]2CC[C@H]3C2)cc1 (single isomer, unassigned) [Example 60, 4*R,7*S)-2-(4-Fluorophenyl)-3-(1H-pyrazolo[3,4-b]pyridin-4-yl)-4,5,6,7-tetrahydro-4,7-methanopyrazolo[1,5-a]pyridine]",1,3
"Fc1ccc(-c2nn3c(c2-c2ccnc4[nH]ncc24)[C@H]2CC[C@@H]3C2)cc1 (single isomer, unassigned) [Example 61]",5,21
"Fc1ccc(-c2nn3c(c2-c2ccnc4[nH]ncc24)[C@@H]2CC[C@H]3C2)nc1 (single isomer, unassigned) [Example 62, (4*R,7*S)-2-(5-Fluoropyridin-2-yl)-3-(1H-pyrazolo[3,4-b]pyridin-4-yl)-4,5,6,7-tetrahydro-4,7-methanopyrazolo[1,5-a]pyridine]",6,55
"Fc1ccc(-c2nn3c(c2-c2ccnc4[nH]ncc24)[C@H]2CC[C@@H]3C2)nc1 (single isomer, unassigned) [Example 63, (4*S,7*R)-2-(5-Fluoropyridin-2-yl)-3-(1H-pyrazolo[3,4-b]pyridin-4-yl)-4,5,6,7-tetrahydro-4,7-methanopyrazolo[1,5-a]pyridine]",12,320
"C[C@H]1Cn2nc(-c3ccc(F)cc3)c(-c3ccnc4[nH]ncc34)c2CO1 (single isomer, unassigned) [Example 81, (*)-2-(4-Fluorophenyl)-6-methyl-3-(1H-pyrazolo[3,4-b]pyridin-4-yl)-6,7-dihydro-4H-pyrazolo[5,1-c][1,4]oxazine]",2,48
"C[C@@H]1Cn2nc(-c3ccc(F)cc3)c(-c3ccnc4[nH]ncc34)c2CO1 (single isomer, unassigned) [Example 82, (*R)-2-(4-Fluorophenyl)-6-methyl-3-(1H-pyrazolo[3,4-b]pyridin-4-yl)-6,7-dihydro-4H-pyrazolo[5,1-c][1,4]oxazine]",2,26
"Cc1cc(-c2c(-c3ccc(F)cc3)nn3c2CO[C@@H](C)C3)c2cn[nH]c2n1 (single isomer, unassigned) [Example 83, (*S)-2-(4-Fluorophenyl)-6-methyl-3-(6-methyl-1H-pyrazolo[3,4-b]pyridin-4-yl)-6,7-dihydro-4H-pyrazolo[5,1-c][1,4]oxazine]",3,34
"Cc1cc(-c2c(-c3ccc(F)cc3)nn3c2CO[C@H](C)C3)c2cn[nH]c2n1 (single isomer, unassigned) [Example 84, (*R)-2-(4-Fluorophenyl)-6-methyl-3-(6-methyl-1H-pyrazolo[3,4-b]pyridin-4-yl)-6,7-dihydro-4H-pyrazolo[5,1-c][1,4]oxazine]",1,25
"C[C@@H]1Cn2nc(-c3ccc(F)cn3)c(-c3ccnc4[nH]ncc34)c2CO1 (single isomer, unassigned) [Example 85, (*R)-2-(5-Fluoro-2-pyridyl)-6-methyl-3-(1H-pyrazolo[3,4-b]pyridin-4-yl)-6,7-dihydro-4H-pyrazolo[5,1-c][1,4]oxazine]",22,371
"C[C@H]1Cn2nc(-c3ccc(F)cn3)c(-c3ccnc4[nH]ncc34)c2CO1 (single isomer, unassigned) [Example 86, (*S)-2-(5-Fluoro-2-pyridyl)-6-methyl-3-(1H-pyrazolo[3,4-b]pyridin-4-yl)-6,7-dihydro-4H-pyrazolo[5,1-c][1,4]oxazine]",29,254
"Cc1cc(-c2c(-c3ccc(F)cn3)nn3c2CO[C@H](C)C3)c2cn[nH]c2n1 (single isomer, unassigned) [Example 87, (*R)-2-(5-Fluoro-2-pyridyl)-6-methyl-3-(6-methyl-1H-pyrazolo[3,4-b]pyridin-4-yl)-6,7-dihydro-4H-pyrazolo[5,1-c][1,4]oxazine]",13,162
"Cc1cc(-c2c(-c3ccc(F)cn3)nn3c2CO[C@@H](C)C3)c2cn[nH]c2n1 (single isomer, unassigned) [Example 88, (*S)-2-(5-Fluoro-2-pyridyl)-6-methyl-3-(6-methyl-1H-pyrazolo[3,4-b]pyridin-4-yl)-6,7-dihydro-4H-pyrazolo[5,1-c][1,4]oxazine]",12,248
"Cc1cc(-c2c(-c3ccc(F)cn3)nn3c2CO[C@@H](C)C3)c2cn[nH]c2n1 (single isomer, unassigned) [Example 89]",9,275
"C[C@H]1COCc2c(-c3ccnc4[nH]ncc34)c(-c3ccc(F)cc3)nn21 (single isomer, unassigned) [Example 91, (*S)-2-(4-Fluorophenyl)-7-methyl-3-(1H-pyrazolo[3,4-b]pyridin-4-yl)-6,7-dihydro-4H-pyrazolo[5,1-c][1,4]oxazine]",8,151
"C[C@@H]1COCc2c(-c3ccnc4[nH]ncc34)c(-c3ccc(F)cc3)nn21 (single isomer, unassigned) [Example 92, (*R)-2-(4-Fluorophenyl)-7-methyl-3-(1H-pyrazolo[3,4-b]pyridin-4-yl)-6,7-dihydro-4H-pyrazolo[5,1-c][1,4]oxazine]",4,100
"Cc1cc(-c2c(-c3ccc(F)cc3)nn3c2COC[C@@H]3C)c2cn[nH]c2n1 (single isomer, unassigned) [Example 93, (*S)-2-(4-Fluorophenyl)-7-methyl-3-(6-methyl-1H-pyrazolo[3,4-b]pyridin-4-yl)-6,7-dihydro-4H-pyrazolo[5,1-c][1,4]oxazine]",10,297
"Cc1cc(-c2c(-c3ccc(F)cc3)nn3c2COC[C@H]3C)c2cn[nH]c2n1 (single isomer, unassigned) [Example 94, (*R)-2-(4-Fluorophenyl)-7-methyl-3-(6-methyl-1H-pyrazolo[3,4-b]pyridin-4-yl)-6,7-dihydro-4H-pyrazolo[5,1-c][1,4]oxazine]",7,92
